# Measurements from publication PMC4503722, “Novel Phenotypic Outcomes Identified for a Public Collection of Approved Drugs from a Publicly Accessible Panel of Assays” (PLoS ONE, 2015).
# Read-outs that look alike come from different tables or passages of the source.
# Key:
# HeLa cells = test: cells; format: cell-based; conditions: for EC50: read-out: CellCycle G2/M; for Hela CellCycMod PI 2N IC50/EC50: assay number 14; for Hela CellCycMod PI S Phase IC50/EC50: assay number 15; for Hela CellCycMod PI 4N IC50/EC50: assay number 16; for Hela CellCycMod PI MI IC50/EC50: assay number 17; for Hela CellCycMod PI Cell Number IC50/EC50: assay number 18
# NCI-H716 cells = test: cells; format: cell-based, Human; conditions: for EC50: read-out: GLP 1 Secretion
# [1] = test system: nuclear β-catenin in C2C12 cells; test: cells; format: cell-based
# HCT116 = test: cells; format: cell-based
# INS-1E cells = test: cells; format: cell-based, rat;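 as to 5mMGluc INS1E SecretionMod IC50/EC50: secreted insulin quantified by homogeneous immunoassay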
# SW480 = test: cells; format: cell-based; conditions: for IC50: Homo sapiens
# HT-29 = test: cells; format: cell-based; conditions: assay number 28; basal
# RKO = test: cells; format: cell-based; conditions: assay number 29; basal
# [2] = test system: HCT116 cells treated with a GSK3β inhibitor; test: cells; format: cell-based; conditions: for IC50: Homo sapiens
# Colo320 = test: cells; format: cell-based; conditions: assay number 27; basal
# [3] = test system: endothelial tube formation in co-cultures of ECFCs and ADSCs treated with VEGF; test: cells; format: cell-based, human
# [4] = test system: ECFC/ADSC co-culture cell nuclei number
# SNU-C1 = test: cells; format: cell-based; conditions: assay number 30; basal
# DLD-1 = test: cells; format: cell-based; conditions: Homo sapiens
# [5] = HCT-116, read-out: GSK3b inh pretreated_Viability ATP HCT116
# [6] = Rattus norvegicus, INS-1E; read-out: Insulin Secretion
smiles,measurement,setting,value
Oc1c(Cl)cc(Cl)c(Cl)c1Cc1c(O)c(Cl)cc(Cl)c1Cl,EC50,HeLa cells,> 10 µM
same,EC50,NCI-H716 cells,> 10 µM
same,EC50,[1]; read-out: Wnt Pathway,> 10 µM
same,IC50,HCT116; read-out: Basal_Viability ATP HCT116,0.0312 µM
same,EC50,INS-1E cells; read-out: Insulin Secretion,> 10 µM
CC(=O)O[C@@]12CO[C@@H]1C[C@H](O)[C@@]1(C)C(=O)[C@H](O)C3=C(C)[C@@H](OC(=O)[C@H](O)[C@@H](NC(=O)OC(C)(C)C)c4ccccc4)C[C@@](O)([C@@H](OC(=O)c4ccccc4)[C@H]21)C3(C)C [NCGC00181306-04],Basal_Viability ATP SW480 IC50/EC50,"SW480; assay number 24, basal",0.001 µM
same,Basal_Viability ATP HT-29 IC50/EC50,HT-29,0.001 µM
same,Basal_Viability ATP RKO IC50/EC50,RKO,0.001 µM
same,Hela CellCycMod PI 2N IC50/EC50,HeLa cells,0.0031 µM
same,Hela CellCycMod PI S Phase IC50/EC50,HeLa cells,> 10 µM
same,Hela CellCycMod PI 4N IC50/EC50,HeLa cells,0.00335 µM
same,Hela CellCycMod PI MI IC50/EC50,HeLa cells,0.00317 µM
same,Hela CellCycMod PI Cell Number IC50/EC50,HeLa cells,0.001 µM
same,WntCondMedia_bCatenin C2C12 IC50/EC50,"[1]; assay number 5, concentration response",0.0652 µM
same,Basal_Viability ATP HCT116 IC50/EC50,"HCT116; assay number 25, basal",0.001 µM
same,GSK3b inh pretreated_Viability ATP HCT116 IC50/EC50,"[2]; assay number 26, GSK3b inhibitor pretreated",0.001 µM
same,Basal_Viability ATP Colo 320 IC50/EC50,Colo320,0.001 µM
same,VEGF_ADSC\ECFC Angio CD31 TubeArea IC50/EC50,[3],0.001 µM
same,VEGF_ADSC\ECFC Angio Hoechst NucArea IC50/EC50,[4],> 10 µM
same,Basal_Viability ATP SNU-C1 IC50/EC50,SNU-C1,> 20 µM
CNC(=O)c1cc(Oc2ccc(NC(=O)Nc3ccc(Cl)c(C(F)(F)F)c3)cc2)ccn1 [Sorafenib tosilate],EC50,"HeLa cells; Homo sapiens, HeLa, S2 Table, HeLa, 20 = no response at highest concentration",> 10 µM
same,EC50,"NCI-H716 cells; Homo sapiens, NCI-H716",> 10 µM
same,EC50,"[1]; Mus musculus, C2C12, S2 Table, module primary assay, 20 / 20.1 codes per legend, read-out: Wnt Pathway",> 10 µM
same,IC50,[2]; [5],1.12 µM
same,EC50,INS-1E cells; [6],> 10 µM
Cc1ccc(C(=O)Nc2ccc(S(=O)(=O)O)c3cc(S(=O)(=O)O)cc(S(=O)(=O)O)c23)cc1NC(=O)c1cccc(NC(=O)Nc2cccc(C(=O)Nc3cc(C(=O)Nc4ccc(S(=O)(=O)O)c5cc(S(=O)(=O)O)cc(S(=O)(=O)O)c45)ccc3C)c2)c1 [NCGC00025177-08],"IC50/EC50, hNCI-H716 GLP1 Secretion (assay number 12)",NCI-H716 cells; concentration response,> 40 µM
OCCOc1ccccc1 [NCGC00090731-08],assay 11 hNCI-H716 GLP1 Secretion max %stim,"NCI-H716 cells; single concentration screen (2 or 10 μM), maximum of all test results",3.7%
same,assay 4 WntCondMedia bCatenin fluor/nucarea C2C12 max %stim,"[1]; single concentration screen (2 and 10 μM), maximum of all test results",0.5%
same,assay 1 Angio CD31 TubeArea max %inh,"[3]; single concentration screen (2 and 10 μM), maximum of all test results, 0 = DMSO, 100 = positive control",8.6%
same,assay 7 5mMGluc INS1E InsulinRelease max %stim,"INS-1E cells; single concentration screen (2 and 10 μM), 5 mM glucose, maximum of all test results",0.2%
Cc1ccc(CCn2c3c(c4cc(Cl)ccc42)CN(C)CC3)cn1 [Dorastine],IC50,"SW480; SW480, basal, read-out: Basal_Viability ATP SW480",9.46 µM
same,EC50,"HeLa cells; Homo sapiens, HeLa, IC50 / EC50, HeLa",> 10 µM
same,EC50,"[1]; Mus musculus, C2C12, IC50 / EC50, C2C12 beta-catenin translocation, read-out: Wnt Pathway",> 10 µM
same,IC50,"HCT116; Homo sapiens, HCT-116, basal, read-out: Basal_Viability ATP HCT116",13.4 µM
same,IC50,"[2]; HCT-116, GSK3b inhibitor pretreated, read-out: GSK3b inh pretreated_Viability ATP HCT116",> 20 µM
same,IC50,"[3]; Homo sapiens, IC50 / EC50, endothelial tube area, ADSC/ECFC co-culture, read-out: Anti-Angiogenesis",> 10 µM
same,IC50,"DLD-1; DLD-1, basal, read-out: Basal_Viability ATP DLD-1",> 20 µM
same,EC50,INS-1E cells; Rattus norvegicus; IC50 / EC50; INS-1E; read-out: Insulin Secretion,4.2 µM
CCN(CC)CCNC(=O)c1c(C)[nH]c(/C=C2\C(=O)Nc3ccc(F)cc32)c1C [NCGC00164631-05],Hela CellCycMod PI 2N IC50/EC50,HeLa cells,> 10 µM
same,Hela CellCycMod PI S Phase IC50/EC50,HeLa cells,> 10 µM
same,Hela CellCycMod PI 4N IC50/EC50,HeLa cells,> 10 µM
same,Hela CellCycMod PI MI IC50/EC50,HeLa cells,3.8121 µM
same,Hela CellCycMod PI Cell Number IC50/EC50,HeLa cells,1.2784 µM
same,VEGF_ADSC\ECFC Angio CD31 TubeArea IC50/EC50,[3],0.0254 µM
same,VEGF_ADSC\ECFC Angio Hoechst NucArea IC50/EC50,[4],> 10 µM
same,5mMGluc_INS1E SecretionMod IC50/EC50,INS-1E cells; assay number 8; 5 mM glucose,> 33.33 µM
CN(C)c1ccc2nc3ccc(=[N+](C)C)cc-3sc2c1 [Methylene blue],IC50,"SW480; SW480, read-out: Basal_Viability ATP SW480",2.68 µM
same,EC50,"[1]; Mus musculus, C2C12, read-out: Wnt Pathway",> 10 µM
same,IC50,"HCT116; Homo sapiens, HCT-116, read-out: Basal_Viability ATP HCT116",2.93 µM
same,IC50,[2]; [5],1.39 µM
same,IC50,"DLD-1; DLD-1, read-out: Basal_Viability ATP DLD-1",> 20 µM
same,EC50,"INS-1E cells; Rattus norvegicus, INS-1E, read-out: Insulin Secretion",> 10 µM
COc1ccc2c(c1)C(=O)N(CCc1ccc(S(=O)(=O)NC(=O)NC3CCCCC3)cc1)C(=O)C2(C)C [NCGC00016819-05],5mMGluc_INS1E SecretionMod IC50/EC50,INS-1E cells; assay number 8; 5 mM glucose,0.2299 µM
COc1ccccc1N1CCN(CCCCNC(=O)c2ccc(-c3ccc(C(C)=O)cc3)cc2)CC1 [NCGC00025004-04],5mMGluc_INS1E SecretionMod IC50/EC50,INS-1E cells; assay number 8; 5 mM glucose,> 33.33 µM
COc1ccc2c(c1OC)C(=O)O[C@@H]2[C@H]1c2cc3c(cc2CCN1C)OCO3 [NCGC00017326-05],5mMGluc_INS1E SecretionMod IC50/EC50,INS-1E cells; assay number 8; 5 mM glucose,> 33.33 µM
"COc1ccc2c(c1)C(=O)N(CCc1ccc(S(=O)(=O)NC(=O)NC3CCCCC3)cc1)C(=O)C2(C)C [gliquidone, reference compound]",IC50,"SW480; SW480, 72 h, Table 2, 72 h, Cell TiterGlo, non-adherent, 20 coded, read-out: SW480 viab. IC50",5.5 µM
same,IC50,"SW480; SW480, basal, SW480, read-out: Basal_Viability ATP SW480",5.5 µM
same,EC50,"[1]; Mus musculus, C2C12, Table 2, C2C12, […], 20 / 20.1 coded, read-out: Wnt pot. EC50",> 10 µM
same,IC50,"HCT116; Homo sapiens, HCT-116, 72 h, read-out: HCT-116 viab. IC50, Table 2, basal, 72 h, Cell TiterGlo, non-adherent, 20 coded",10.1 µM
same,IC50,"HCT116; Homo sapiens, HCT-116, basal, HCT116, read-out: Basal_Viability ATP HCT116",10.1 µM
same,IC50,"[2]; HCT-116, read-out: HCT-116 (GSK3β) viab. IC50, Table 2, GSK3β inhibitor LY2090314 20 nM, 72 h, Cell TiterGlo, 20 coded",7 µM
same,IC50,"[2]; HCT-116, HCT116 pretreated with GSK3b inhibitor, read-out: GSK3b inh pretreated_Viability ATP HCT116",7.03 µM
same,IC50,"DLD-1; DLD-1, 72 h, Table 2, 72 h, Cell TiterGlo, non-adherent, 20 coded, read-out: DLD-1 viab. IC50",5.1 µM
same,IC50,"DLD-1; DLD-1, basal, DLD-1, read-out: Basal_Viability ATP DLD-1",5.11 µM
same,EC50,"INS-1E cells; Rattus norvegicus, INS-1E; read-out: Ins. sec. EC50",0.23 µM
same,EC50,INS-1E cells; [6],0.23 µM
CNCCCCOc1ccccc1Cc1ccccc1 [NCGC00024778-02],5mMGluc_INS1E SecretionMod IC50/EC50,INS-1E cells; assay number 8; 5 mM glucose,> 33.33 µM
